Results: article PMC10648349, “Aromatic Diboronic Acids as Effective KPC/AmpC Inhibitors” (Molecules, 2023)
Values after ≈ are worked out from the molar mass of the structure shown.

What was measured:
B. subtilis ATCC 6633 = experiment: direct antimicrobial activity (disc-diffusion); assay type: cell-based; conditions: Bacillus subtilis, ATCC6633; 0.4 mg per disc, 9 mm disc (linezolid 0.03 mg, 6 mm disc); - no zone; read-out: Diameter of inhibition zone
Method in brief: (§1)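 Reference drugs were nitrofurantoin for Gram-negative rods, linezolid for Gram-positive bacteria and fluconazole for yeasts. Test agents were dissolved in DMSO and assessed by disc diffusion (0.4 mg/disc), MIC, and MBC or MFC per EUCAST/CLSI.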

[1] = tested on: S. aureus ATCC 43300 MRSA; experiment: direct antimicrobial activity (disc-diffusion, MIC, MBC); assay type: cell-based; conditions: Staphylococcus aureus; for zone of inhibition at 0.4 mg/disc: 0.4 mg per disc, 9 mm disc (linezolid 0.03 mg, 6 mm disc), - no zone, read-out: Diameter of inhibition zone
Method in brief: as §1

E. faecalis ATCC 29212 = experiment: as above; assay type: cell-based; conditions: Enterococcus faecalis, ATCC29212; for zone of inhibition at 0.4 mg/disc: 0.4 mg per disc, 9 mm disc (linezolid 0.03 mg, 6 mm disc), - no zone, read-out: Diameter of inhibition zone
Method in brief: as §1

S. aureus ATCC 6538P = experiment: as above; assay type: cell-based; conditions: Staphylococcus aureus, ATCC6538P; for zone of inhibition at 0.4 mg/disc: 0.4 mg per disc, 9 mm disc (linezolid 0.03 mg, 6 mm disc), - no zone, read-out: Diameter of inhibition zone
Method in brief: as §1

C. krusei ATCC 6258 = experiment: antifungal activity (disc-diffusion, MIC, MFC); assay type: cell-based, Candida krusei; conditions: Pichia kudriavzevii, ATCC6258; for MIC: fluconazole by Etest
Method in brief: as §1

[2] = tested on: C. guilliermondii IBA 155; experiment: antifungal activity (disc-diffusion, MIC, MFC); assay type: cell-based, Candida guilliermondii; conditions: Meyerozyma guilliermondii, IBA155; for MIC: fluconazole by Etest; for zone of inhibition at 0.4 mg/disc: 0.4 mg per disc, 9 mm disc (fluconazole 0.025 mg, 6 mm disc), - no zone, read-out: Diameter of inhibition zone
Method in brief: as §1

[3] = tested on: C. parapsilosis ATCC 22019; experiment: antifungal activity (disc-diffusion, MIC, MFC); assay type: cell-based, Candida parapsilosis; conditions: Lodderomyces parapsilosis, ATCC22019; for MIC: fluconazole by Etest; for zone of inhibition at 0.4 mg/disc: 0.4 mg per disc, 9 mm disc (fluconazole 0.025 mg, 6 mm disc), - no zone, read-out: Diameter of inhibition zone
Method in brief: as §1

[4] = tested on: P. aeruginosa MUW 700 cAmpC-positive; experiment: combination disc test CDT-AmpC; assay type: cell-based; conditions: Pseudomonas aeruginosa; agent 0.1 mg per disc; read-out: Diameter of inhibition zone, CAZ-30 disc with agent
[5] = tested on: E. coli 77 CMY-2-positive; experiment: combination disc test CDT-AmpC; assay type: cell-based; conditions: Escherichia coli; agent 0.1 mg per disc; read-out: Diameter of inhibition zone, CAZ-30 disc with agent
[6] = tested on: K. pneumoniae ATCC 700603 ESBL-positive; experiment: combination disc test CDT-ESBL; assay type: cell-based; conditions: Klebsiella pneumoniae, ATCC700603; agent 0.1 mg per disc; read-out: Diameter of inhibition zone, CAZ-30 disc with agent
[7] = MTT-based viability assay; assay type: cell-based; conditions: human, MRC-5 human fibroblasts, 72 h, read-out: Viability of MRC-5 cells (% of viable cells ± SD)
Method in brief: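 Percent viable cells relative to control, measured in triplicate by MTT read-out at 570 nm. Cells: MRC-5 human fibroblasts cultured at 37 °C, 5% CO2 in MEME plus 10% FBS.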

[8] = tested on: P. aeruginosa MUW 700 cAmpC-positive; experiment: checkerboard microdilution, antibiotic plus tested agent; assay type: cell-based, Pseudomonas aeruginosa
Method in brief: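 Chequerboard layout: tested agent in three two-fold steps (4–16 mg/L) crossed with seven β-lactam dilutions (1–64 mg/L), meropenem for KPC strains and ceftazidime for the cAmpC strain. FICI from first non-growth wells, off-scale MICs raised one doubling; ≤0.5 counts as synergy, >4 antagonism.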

[9] = tested on: K. pneumoniae 83 KPC-3(+), CTX-M-3(+); experiment: MIC of tested agent alone, microdilution; assay type: cell-based; conditions: Klebsiella pneumoniae; read-out: MIC of agent alone
Method in brief: (§2)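 Checkerboard microdilution; β-lactam 1–64 mg/L (7 two-fold steps) × agent/PBA 4–16 mg/L (3 two-fold steps). Agent-alone MIC by standard microdilution. FICI from first no-growth wells along growth interface.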

[10] = tested on: K. pneumoniae 81 KPC-3(+); experiment: MIC of tested agent alone, microdilution; assay type: cell-based; conditions: Klebsiella pneumoniae; read-out: MIC of agent alone
Method in brief: as §2

[11] = tested on: K. pneumoniae ATCC BAA-1705 KPC-2(+); experiment: MIC of tested agent alone, microdilution; assay type: cell-based; conditions: Klebsiella pneumoniae, ATCCBAA1705; read-out: MIC of agent alone
Method in brief: as §2

[12] = tested on: P. aeruginosa MUW 700 AmpC(+); experiment: MIC of tested agent alone, microdilution; assay type: cell-based; conditions: Pseudomonas aeruginosa; read-out: MIC of agent alone
Method in brief: as §2

E. coli 77 CMY-2(+) = experiment: MIC of tested agent alone, microdilution; assay type: cell-based; conditions: Escherichia coli; read-out: MIC of agent alone
Method in brief: as §2

E. coli 76 KPC-2(+) = experiment: MIC of tested agent alone, microdilution; assay type: cell-based; conditions: Escherichia coli; read-out: MIC of agent alone
Method in brief: as §2

Row | MIC [1] [µg/mL] | MIC (E. faecalis ATCC 29212) [µg/mL] | MIC (S. aureus ATCC 6538P) [µg/mL] | MIC (C. krusei ATCC 6258) [µg/mL] | MIC [2] [µg/mL] | MIC [3] [µg/mL] | MIC [9] [µg/mL] | MIC [10] [µg/mL] | MIC [11] [µg/mL] | Structure (SMILES) | zone of inhibition at 0.4 mg/disc (B. subtilis ATCC 6633) [mm] | zone of inhibition at 100 µg/disc [4] [mm] | zone of inhibition at 100 µg/disc [5] [mm] | zone of inhibition at 100 µg/disc [6] [mm] | viability at 72 h, 12.5 mg/L [7] [%] | viability at 72 h, 25 mg/L [7] [%] | viability at 72 h, 50 mg/L [7] [%] | Average FICI with ceftazidime [8] | Interpretation of the average FICI with ceftazidime [8] | Interpretation of the lowest FICI with ceftazidime [8] | The lowest FICI with ceftazidime [8] | also measured
1 | 50 (≈ 248 µM) | 200 (≈ 991 µM) | 25 (≈ 124 µM) | 400 (≈ 1980 µM) | > 400 | > 400 | 200 | 200 | 200 | OB(O)c1ccc(B(O)O)c(F)c1F [1c] | 28 | 18 | 20 | 14 | 112 ± 3.8 | 103 ± 3 | 96.7 ± 3.3 | 0.32 | S (FICI ≤ 0.5, synergy) | S (FICI ≤ 0.5, synergy) | 0.17 | zone of inhibition at 0.4 mg/disc [1]: 22 mm; zone of inhibition at 0.4 mg/disc (E. faecalis ATCC 29212): 16 mm; zone of inhibition at 0.4 mg/disc (S. aureus ATCC 6538P): 22 mm; MIC [12]: 400 µg/mL; MIC (E. coli 77 CMY-2(+)): 200 µg/mL; MIC (E. coli 76 KPC-2(+)): 200 µg/mL
2 | 200 (≈ 991 µM) | > 400 | 25 (≈ 124 µM) | 200 (≈ 991 µM) | 200 (≈ 991 µM) | 200 (≈ 991 µM) | 400 | 400 | 400 | OB(O)c1cc(F)c(B(O)O)c(F)c1 [1d] | 15 | 17 | 20 | 14 | 111.6 ± 1.1 | 104 ± 8.9 | 83.3 ± 1.2 | 0.43 | S (FICI ≤ 0.5, synergy) | S (FICI ≤ 0.5, synergy) | 0.27 | zone of inhibition at 0.4 mg/disc [2]: 16 mm; zone of inhibition at 0.4 mg/disc [3]: 14 mm; MIC [12]: > 400 µg/mL; MIC (E. coli 77 CMY-2(+)): 400 µg/mL; MIC (E. coli 76 KPC-2(+)): 400 µg/mL
3 | 25 (≈ 124 µM) | 200 (≈ 991 µM) | 12.5 (≈ 62 µM) | > 400 | > 400 | > 400 | 200 | 200 | 200 | OB(O)c1cc(F)c(B(O)O)cc1F [1e] | 28 | 18 | 20 | 15 | 107 ± 3.3 | 105 ± 10 | 117 ± 4.6 | 0.38 | S (FICI ≤ 0.5, synergy) | S (FICI ≤ 0.5, synergy) | 0.29 | zone of inhibition at 0.4 mg/disc [1]: 26 mm; zone of inhibition at 0.4 mg/disc (E. faecalis ATCC 29212): 15 mm; zone of inhibition at 0.4 mg/disc (S. aureus ATCC 6538P): 20 mm; zone of inhibition at 0.4 mg/disc (C. krusei ATCC 6258; 0.4 mg per disc, 9 mm disc (fluconazole 0.025 mg, 6 mm disc), - no zone, read-out: Diameter of inhibition zone): 16 mm; zone of inhibition at 0.4 mg/disc [2]: 16 mm; zone of inhibition at 0.4 mg/disc [3]: 15 mm; MIC [12]: 200 µg/mL; MIC (E. coli 77 CMY-2(+)): 100 µg/mL; MIC (E. coli 76 KPC-2(+)): 100 µg/mL
